Measured values from US11479556B1, “Bifunctional compounds for degrading BTK via ubiquitin proteosome pathway” (NURIX THERAPEUTICS, INC., priority 2018, dated 2022).

Target: T1, BTK (Homo sapiens, UniProt Q06187)
T1 construct: endogenous in cells; host or cells: TMD8 cells
Assay: Cellular BTK HTRF assay (BTK degradation) in TMD8 cells
Type: cell-based
Conditions: four hours incubation, Total-BTK HTRF relative to DMSO-treated cells
Procedure: Example 66: BTK Degradation Assay
TMD8 cells were obtained from Tokyo Medical and Dental University and were grown in alpha-MEM (Fisher 12571063) supplemented with 10% heat-inactivated FBS (Corning Premium Fetal Bovine Serum from Fisher, MT35015CV).
Compounds of the present invention were added to 50,000 TMD8 cells in round-bottom 96 well plates with a final DMSO concentration of […] and were incubated at 37° C. 5% CO2 for four hours. BTK levels were determined using Cisbio Total-BTK HTRF ([…] Time-Resolved Fluorescence) kit (63ADK064PEG) according to manufacturer's protocol. Briefly, cells were incubated in 1× supplied lysis buffer for 30 minutes. In an opaque white low volume 96 well plate (Cisbio, 66PL96005), cell lysate was combined with two different specific BTK antibodies, one conjugated with Eu^3+-Cryptate FRET donor and one conjugated with d2 FRET acceptor. Assay controls include wells containing cell lysate with only the Eu^3+-Cryptate FRET donor antibody and wells containing both HTRF antibodies and lysis buffer without cells or control lysate provided by Cisbio. HTRF ratio was calculated as (acceptor signal at 665 nm/donor signal at 620 nm)×10^4. Background HTRF levels were determined from the control well containing the donor, but no acceptor, antibody. Background HTRF levels were subtracted from all samples. Readouts were reported as HTRF levels relative to HTRF levels of DMSO-treated cells. Four-parameter non-linear regressions were performed in GraphPad Prism 7.02 to obtain DC50 values. DC50 values are provided in Table 3, wherein A<5.0 nM, 5.0 nM≤B≤15 nM, and 15 nM<C.

T1 sequence (Q06187 whole entry): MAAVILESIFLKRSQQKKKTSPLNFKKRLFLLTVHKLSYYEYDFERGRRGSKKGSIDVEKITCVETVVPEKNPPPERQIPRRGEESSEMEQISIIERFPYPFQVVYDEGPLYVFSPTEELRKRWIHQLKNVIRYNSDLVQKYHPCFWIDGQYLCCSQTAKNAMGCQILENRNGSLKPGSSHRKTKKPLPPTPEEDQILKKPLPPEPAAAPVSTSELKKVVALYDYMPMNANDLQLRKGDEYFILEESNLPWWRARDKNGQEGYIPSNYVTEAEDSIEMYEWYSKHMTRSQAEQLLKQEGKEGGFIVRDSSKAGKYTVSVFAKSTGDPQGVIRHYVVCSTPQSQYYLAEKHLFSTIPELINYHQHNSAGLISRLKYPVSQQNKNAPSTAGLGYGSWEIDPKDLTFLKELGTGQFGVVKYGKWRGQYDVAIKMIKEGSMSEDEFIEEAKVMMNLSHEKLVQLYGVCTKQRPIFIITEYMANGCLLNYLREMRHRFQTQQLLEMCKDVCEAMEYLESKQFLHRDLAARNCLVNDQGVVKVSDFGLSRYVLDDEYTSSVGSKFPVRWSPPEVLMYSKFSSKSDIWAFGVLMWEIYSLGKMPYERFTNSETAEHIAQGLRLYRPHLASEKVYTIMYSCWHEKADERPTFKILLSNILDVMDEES

Question: For NC(=O)c1ncc(N2CCC3(COC3)C2)nc1Nc1ccc(C2CCN(C[C@H]3CCN(c4ccc5c(c4)C(=O)N(C4CCC(=O)NC4=O)C5=O)C3)CC2)cc1 (some centres unmarked) [Compound 176], which DC50 is on record?
Answer: < 5 nM

Question: How did the DC50 turn out when CN1CCN([C@H]2CCCN(c3cnc(C(N)=O)c(Nc4ccc(N5CCC6(CCN(c7ccc8c(c7)C(=O)N(C7CCC(=O)NC7=O)C8=O)CC6)CC5)nc4)n3)C2)C1=O (some centres unmarked) [Compound 80] was run?
Answer: < 5 nM

Question: With CN1CCN([C@@H]2CCCN(c3cnc(C(N)=O)c(Nc4ccc(C5(C)CCN(C(=O)CCCCc6cccc7c6CN(C6CCC(=O)NC6=O)C7=O)CC5)cc4)n3)C2)C1=O (some centres unmarked) [Compound 26] as the molecule, how does the DC50 read?
Answer: 5 to 15 nM

Question: How did the DC50 turn out when CN1CCN([C@@H]2CCCN(c3cnc(C(N)=O)c(Nc4ccc(C(=O)NCCOCCOCCOCCNc5cccc6c5C(=O)N(C5CCC(=O)NC5=O)C6=O)cc4)n3)C2)C1=O (some centres unmarked) [Compound 3] was run?
Answer: > 15 nM

Question: Which DC50 does the source give for Cn1c(-c2ccc(N3CCC(CN4CCC(c5ccc(Nc6nc(N7CCCC8(COC8)C7)cnc6C(N)=O)cc5)CC4)CC3)cc2)nn(C2CCC(=O)NC2=O)c1=O (centres unmarked) [Compound 178] here?
Answer: 5 to 15 nM

Question: Which DC50 does the source give for NC(=O)c1ncc(N2CCCC(N3CCCC3=O)C2)nc1Nc1ccc(C2CN(C[C@@H]3CCN(c4ccc5c(c4)C(=O)N(C4CCC(=O)NC4=O)C5=O)C3)C2)cc1 (some centres unmarked) [Compound 146] here?
Answer: < 5 nM

Question: With CN1CCN([C@H]2CCCN(c3cnc(C(N)=O)c(Nc4ccc(N5CCC6(CC5)CCN(c5ccc7c(c5)C(=O)N(C5CCC(=O)NC5=O)C7=O)C6)cc4)n3)C2)C1=O (some centres unmarked) [Compound 109] as the molecule, how does the DC50 read?
Answer: < 5 nM

Question: With CN1CCN([C@@H]2CCCN(c3cnc(C(N)=O)c(Nc4ccc(C5CCN(C6CN(Cc7ccc8c(c7)CN(C7CCC(=O)NC7=O)C8=O)C6)CC5)cc4)n3)C2)C1=O (some centres unmarked) [Compound 86] as the molecule, how does the DC50 read?
Answer: < 5 nM

Question: For CN1CCN([C@H]2CCCN(c3cnc(C(N)=O)c(Nc4cnn(C5CCN(CCCc6cccc7c6CN(C6CCC(=O)NC6=O)C7=O)CC5)c4)n3)C2)C1=O (some centres unmarked) [Compound 84], which DC50 is on record?
Answer: > 15 nM

Question: CN1CCN([C@@H]2CCCN(c3cnc(C(N)=O)c(Nc4ccc(N5CC[C@@H]6CCN(Cc7ccc8c(c7)C(=O)N(N7CCC(=O)NC7=O)C8=O)C[C@@H]6C5)cc4)n3)C2)C1=O [Compound 95] was tested. Which DC50 did it give?
Answer: 5 to 15 nM

Question: CN1CCN([C@@H]2CCCN(c3cnc(C(N)=O)c(Nc4ccc(C5(C)CCN(C(=O)CN6CCN(CCCc7cccc8c7C(=O)N(C7CCC(=O)NC7=O)C8=O)CC6)CC5)cc4)n3)C2)C1=O (some centres unmarked) [Compound 22] was tested. Which DC50 did it give?
Answer: 5 to 15 nM

Question: How did the DC50 turn out when CN1CCN([C@@H]2CCCN(c3cnc(C(N)=O)c(Nc4ccc(C5CCN(CC6CN(c7ccc8c(c7)C(=O)N(C7CCC(=O)NC7=O)C8=O)C6)CC5)cc4)n3)C2)C1=O (some centres unmarked) [Compound 54] was run?
Answer: < 5 nM

Question: With CN1CCN([C@@H]2CCCN(c3cnc(C(N)=O)c(Nc4ccc(C5CN(CC6CCN(c7ccc(-c8nn(C9CCC(=O)NC9=O)c(=O)n8C)cc7)CC6)C5)cc4)n3)C2)C1=O (some centres unmarked) [Compound 119] as the molecule, how does the DC50 read?
Answer: < 5 nM

Question: How did the DC50 turn out when CN1CCN([C@@H]2CCCN(c3cnc(C(N)=O)c(Nc4ccc(C5CCN(c6ccc7c(c6)C(=O)N(C6CCC(=O)NC6=O)C7=O)CC5)cc4)n3)C2)C1=O (some centres unmarked) [Compound 47] was run?
Answer: < 5 nM

Question: CN1CCN([C@@H]2CCCN(c3cnc(C(N)=O)c(Nc4ccc(C5CN(CC6CCN(c7cnn(C8CCC(=O)NC8=O)c(=O)c7)CC6)C5)cc4)n3)C2)C1=O (some centres unmarked) [Compound 118] was tested. Which DC50 did it give?
Answer: < 5 nM

Question: For CN1CCN([C@@H]2CCCN(c3cnc(C(N)=O)c(Nc4ccc(N5CCC6(CCN(C(=O)CCOCCCc7cccc8c7CN(C7CCC(=O)NC7=O)C8=O)CC6)CC5)cc4)n3)C2)C1=O (stereo partly drawn) [Compound 57, 3-((4-(9-(3-(3-(2-(2,6-dioxopiperidin-3-yl)-1-oxoisoindolin-4-yl)propoxy)propanoyl)-3,9-diazaspiro[5.5]undecan-3-yl)phenyl)amino)-5-((R)-3-(3-methyl-2-oxoimidazolidin-1-yl)piperidin-1-yl)pyrazine-2-carboxamide], which DC50 is on record?
Answer: < 5 nM

Question: How did the DC50 turn out when CN1CCN([C@@H]2CCCN(c3cnc(C(N)=O)c(Nc4ccc(C5(C)CCN(C(=O)CN6CCN(CCc7cccc8c7CN(C7CCC(=O)NC7=O)C8=O)CC6)CC5)cc4)n3)C2)C1=O (some centres unmarked) [Compound 13] was run?
Answer: 5 to 15 nM

Question: Which DC50 does the source give for CN1CCN([C@H]2CCCN(c3cnc(C(N)=O)c(Nc4ccc(C(=O)N5CCN(Cc6ccc7c(c6)C(=O)N(C6CCC(=O)NC6=O)C7=O)CC5)cc4)n3)C2)C1=O (some centres unmarked) [Compound 90] here?
Answer: 5 to 15 nM

Question: CN1CCN([C@@H]2CCCN(c3cnc(C(N)=O)c(Nc4ccc(C5(C)CCN(CCCc6cccc7c6CN(C6CCC(=O)NC6=O)C7=O)CC5)cc4)n3)C2)C1=O (some centres unmarked) [Compound 16] was tested. Which DC50 did it give?
Answer: 5 to 15 nM

Question: How did the DC50 turn out when CN1CCN([C@@H]2CCCN(c3cnc(C(N)=O)c(Nc4ccc(N5CCN(CC6CN(c7ccc8c(c7)C(=O)N(C7CCC(=O)NC7=O)C8=O)C6)CC5)cc4)n3)C2)C1=O (some centres unmarked) [Compound 60] was run?
Answer: < 5 nM

Question: How did the DC50 turn out when NC(=O)c1ncc(N2CCCCC2)nc1Nc1ccc(C2CCN(CC3CCN(c4ccc(OC5CCC(=O)NC5=O)cn4)CC3)CC2)cc1 (centres unmarked) [Compound 164] was run?
Answer: 5 to 15 nM

Question: How did the DC50 turn out when CN1CCN([C@@H]2CCCN(c3cnc(C(N)=O)c(Nc4ccc(OCCCNC(=O)[C@H]5C[C@@H](OCCCc6cccc7c6C(=O)N(C6CCC(=O)NC6=O)C7=O)C5)cc4)n3)C2)C1=O (some centres unmarked) [Compound 5] was run?
Answer: > 15 nM

Question: NC(=O)c1ncc(N2CCC[C@@H](CO)C2)nc1Nc1ccc(C2CCN(CC3CCN(c4ccc5c(=O)n(C6CCC(=O)NC6=O)ccc5c4)CC3)CC2)cc1 (some centres unmarked) [Compound 172] was tested. Which DC50 did it give?
Answer: < 5 nM

Question: Which DC50 does the source give for CN1CCN([C@@H]2CCCN(c3cnc(C(N)=O)c(Nc4ccc(N5CCC6CCN(Cc7ccc8c(c7)C(=O)N(N7CCC(=O)NC7=O)C8=O)CC6C5)cc4)n3)C2)C1=O (some centres unmarked) [Compound 104] here?
Answer: 5 to 15 nM

Question: Which DC50 does the source give for CN1CCN([C@@H]2CCCN(c3cnc(C(N)=O)c(Nc4ccc(N5CCN(C(=O)CCOCCNc6cccc7c6C(=O)N(C6CCC(=O)NC6=O)C7=O)CC5)cc4)n3)C2)C1=O (some centres unmarked) [Compound 19] here?
Answer: 5 to 15 nM

Question: CN1CCN([C@@H]2CCCN(c3cnc(C(N)=O)c(Nc4ccc(N5CCC6CCN(c7cccc8c7C(=O)N(N7CCC(=O)NC7=O)C8=O)CC6C5)cc4)n3)C2)C1=O (some centres unmarked) [Compound 105] was tested. Which DC50 did it give?
Answer: > 15 nM

Question: Which DC50 does the source give for Cc1ncsc1-c1ccc(CNC(=O)[C@@H]2C[C@@H](O)CN2C(=O)[C@@H](NC(=O)C2(F)CC2)C(C)(C)C)c(OCCCCCCCC(=O)N2CCC(c3ccc(Nc4nc(N5CCC[C@@H](N6CCN(C)C6=O)C5)cnc4C(N)=O)cc3)CC2)c1 [Compound 186] here?
Answer: > 15 nM

Question: CN1CCN([C@@H]2CCCN(c3cnc(C(N)=O)c(Nc4ccc(OCCCNC(=O)CCCN5CCN(c6ccc7c(c6)C(=O)N(C6CCC(=O)NC6=O)C7=O)CC5)cc4)n3)C2)C1=O (some centres unmarked) [Compound 4] was tested. Which DC50 did it give?
Answer: > 15 nM

Question: For CN1CCN([C@H]2CCCN(c3cnc(C(N)=O)c(Nc4ccc(C5CCN(C[C@H]6CCCN6c6ccc7c(c6)C(=O)N(C6CCC(=O)NC6=O)C7=O)CC5)cc4)n3)C2)C1=O (some centres unmarked) [Compound 87], which DC50 is on record?
Answer: < 5 nM

Question: For CN1CCN([C@@H]2CCCN(c3cnc(C(N)=O)c(Nc4ccc(C5(C)CCN(c6ccc7c(c6)C(=O)N(C6CCC(=O)NC6=O)C7=O)CC5)cc4)n3)C2)C1=O (some centres unmarked) [Compound 58], which DC50 is on record?
Answer: 5 to 15 nM

Question: How did the DC50 turn out when CN1CCN([C@@H]2CCCN(c3cnc(C(N)=O)c(Nc4ccc(N5CCN(C[C@H]6CCN(c7ccc8c(c7)C(=O)N(C7CCC(=O)NC7=O)C8=O)C6)CC5)nc4)n3)C2)C1=O (some centres unmarked) [Compound 113] was run?
Answer: < 5 nM

Question: Which DC50 does the source give for NC(=O)c1ncc(-n2ccc(C(F)(F)F)n2)nc1Nc1ccc(C2CCN(C[C@H]3CCN(c4ccc5c(c4)C(=O)N(C4CCC(=O)NC4=O)C5=O)C3)CC2)cc1 (some centres unmarked) [Compound 128] here?
Answer: > 15 nM

Question: For CN1CCN([C@@H]2CCCN(c3cnc(C(N)=O)c(Nc4ccc(C5(C)CCN(C(=O)CCCN6CCN(c7ccc8c(c7)C(=O)N(C7CCC(=O)NC7=O)C8=O)CC6)CC5)cc4)n3)C2)C1=O (some centres unmarked) [Compound 11], which DC50 is on record?
Answer: < 5 nM

Question: How did the DC50 turn out when CN1CCN([C@H]2CCCN(c3cnc(C(N)=O)c(Nc4ccc(N5CCCC6(CN(Cc7ccc8c(c7)C(=O)N(C7CCC(=O)NC7=O)C8=O)C6)C5)cc4)n3)C2)C1=O (some centres unmarked) [Compound 94] was run?
Answer: < 5 nM

Question: CN1CCN([C@@H]2CCCN(c3cnc(C(N)=O)c(Nc4ccc(N5CCN(CCC6CN(c7ccc8c(c7)C(=O)N(C7CCC(=O)NC7=O)C8=O)C6)CC5)cc4)n3)C2)C1=O (some centres unmarked) [Compound 43] was tested. Which DC50 did it give?
Answer: < 5 nM

Question: For CN1CCN([C@@H]2CCCN(c3cnc(C(N)=O)c(Nc4ccc(N5CCN(C[C@@H]6CCN(c7ccc8c(c7)C(=O)N(C7CCC(=O)NC7=O)C8=O)C6)CC5)cc4)n3)C2)C1=O (some centres unmarked) [Compound 59], which DC50 is on record?
Answer: < 5 nM

Question: Which DC50 does the source give for CN1CCN([C@H]2CCCN(c3cnc(C(N)=O)c(Nc4ccc(C5(C)CCN([C@H]6C[C@@H](Nc7cccc8c7C(=O)N(C7CCC(=O)NC7=O)C8=O)C6)CC5)cc4)n3)C2)C1=O (some centres unmarked) [Compound 102] here?
Answer: < 5 nM

Question: Which DC50 does the source give for CN1CCN([C@H]2CCCN(c3cnc(C(N)=O)c(Nc4ccc(N5CC6CN(c7ccc8c(c7)C(=O)N(C7CCC(=O)NC7=O)C8=O)CC6C5)cc4)n3)C2)C1=O (some centres unmarked) [Compound 79] here?
Answer: > 15 nM

Question: Which DC50 does the source give for Cn1c(N2CCC(CN3CC(c4ccc(Nc5nc(N6CCC[C@H](N7CCCC7=O)C6)cnc5C(N)=O)cc4)C3)CC2)nn(C2CCC(=O)NC2=O)c1=O (some centres unmarked) [Compound 141] here?
Answer: < 5 nM

Question: For CN1CCN([C@@H]2CCCN(c3cnc(C(N)=O)c(Nc4ccc(C5CCN(C[C@@H]6CCN(c7ccc8c(c7)C(=O)N(C7CCC(=O)NC7=O)C8=O)C6)CC5)cc4)n3)C2)C1=O (some centres unmarked) [Compound 52], which DC50 is on record?
Answer: < 5 nM

Question: With CN1CCN([C@@H]2CCCN(c3cnc(C(N)=O)c(Nc4ccc(N5CCN(CCCc6cccc7c6CN(C6CCC(=O)NC6=O)C7=O)CC5)cc4)n3)C2)C1=O (some centres unmarked) [Compound 15] as the molecule, how does the DC50 read?
Answer: < 5 nM
